Measured values from patent US10422788B2, “Profiling peptides and methods for sensitivity profiling” (Tolero Pharmaceuticals, Inc., priority 2016, dated 2019).

Assays:
HL-60 = experiment: SEQ ID NO: 14 assay (Example 5, DiOC6 flow cytometry); type: cell-based; conditions: non-permeabilized, DiOC6 MFI vs CCCP and water
MOLM-13 cells = experiment: Whole cell assay, JC-1 mitochondrial potential, cells lacking digitonin (FIG. 1B); type: cell-based; conditions: 100 μM peptide, no digitonin
Procedure: (§1) Briefly, frozen MOLM-13 and OCI-AML3 cell stocks were rapidly thawed, and cell viability was determined by Trypan Blue exclusion. Cells were washed in PBS and resuspended in DTEB (or MEB) buffer (135 mM Trehalose [or 150 mM Mannitol], 10 mM HEPES, 50 mM KCl, 20 μMI EGTA, 20 μM EDTA, 0.1% BSA, and 5 mM succinate). The profiling peptides and NOXA ([…]; SEQ ID NO:16) were reconstituted in water to make working solutions allowing for final concentrations of: SEQ ID NO:1 (100 μM), SEQ ID NO:14 (100 μM), SEQ ID NO:15 (100 μM), and NOXA (100 μM). […] Profiling peptides, controls, or NOXA (for comparison purposes) were first added to a microplate. Cells (4×10^5) resuspended in DTEB or MEB buffers were then added to a staining solution ([…], 40 μM JC-1, 1 M 2-mercaptoethanol, DTEB or MEB buffer), before being added to the wells of the microplate in the above (for non-digitonin-treated samples, digitonin was not added to the staining solution above). The mixture was then incubated for up to 2 hours at 30° C., in order for cell permeabilization (if needed), delivery of peptides or compounds, and mitochondrial depolarization to occur. Fluorescence signal of each well was assessed using an Envision multilabel plate reader at Ex475/Em530 and Ex530/Em595. […]

[1] = test system: subject samples (AML blast cells); experiment: SEQ ID NO: 14 assay (Example 5) on subject samples; type: cell-based, human
Procedure: (§2) Leukocytes are isolated from primary bone marrow aspirates using ficoll preparation. Leukocytes may be fresh or frozen. If frozen, the sample is thawed prior to testing. Incubate the sample in RPMI with DNase 1 in 37° C. incubator for 60 minutes. Cells are then pelleted, blocked in PBS with 1% BSA for 15 minutes on ice, followed by staining for 30 minutes on ice in the dark. After staining, cells are pelleted and resuspended in DTEB with Ryanodine (30 nM) and Oligomycin. After incubating in a 37° C. incubator for 30 minutes, the sample is separated into fluorescent-activated cell sorting (FACS) tubes and treated with either water (negative control), CCCP (positive control) or SEQ ID NO:14 (subject dependency) and incubated in a 37° incubator for 60 minutes. DiOC6, a cationic mitochondrial dye is then added and incubated for 60 minutes in a 37° C. incubator. The cells are then analyzed via flow cytometry. Blast cells are isolated by gating on the CD45 dim, CD13, CD33 and CD34 high population of each sample. (See FIG. 3). Where indicated, cells may be further gated using CD3 and CD20. Dependency values are calculated using the median fluorescent intensity (MFI) of DiOC6 in each sample according to the following equation: […]

MV4-11 = experiment: SEQ ID NO: 14 assay (Example 5, DiOC6 flow cytometry); type: cell-based; conditions: non-permeabilized, DiOC6 MFI vs CCCP and water
Procedure: as §2
NOXA assay results were compared to the results of the assay described in Example 5.

[2] = test system: MOLM-13 and OCI-AML3 cells; experiment: Whole cell assay, JC-1 mitochondrial potential, permeabilized and non-permeabilized cells; type: cell-based; conditions: 100 μM, normalized mitochondrial potential
Procedure: as §1

KG-1 = experiment: SEQ ID NO: 14 assay (Example 5, DiOC6 flow cytometry); type: cell-based; conditions: non-permeabilized, DiOC6 MFI vs CCCP and water
OCI-AML3 = experiment: as above; type: cell-based; conditions: non-permeabilized, DiOC6 MFI vs CCCP and water
U-937 = experiment: as above; type: cell-based; conditions: non-permeabilized, DiOC6 MFI vs CCCP and water
THP-1 = experiment: as above; type: cell-based; conditions: non-permeabilized, DiOC6 MFI vs CCCP and water
MOLM-13 = experiment: as above; type: cell-based; conditions: non-permeabilized, DiOC6 MFI vs CCCP and water
[3] = Sample # 17, subject treated with FLAM, complete response
[4] = Sample # 18, subject treated with FLAM, complete response
[5] = Sample # 19, subject treated with FLAM, complete response

Sequence: YGRKKRRQRRRGGGRPEIWMTQGLRRLGDEINAYYAR (profiling peptide sequence) [SEQ ID NO:14]
- SEQ ID NO: 14 Dependency % (HL-60): 24.5%
- activity compared to the positive control (FCCP) (MOLM-13 cells): exceeded the activity of the positive control
- SEQ ID NO: 14 Dependency % ([1]; Sample # 1): 18.0%
- SEQ ID NO: 14 Result (Pos/Neg) ([1]; Sample # 1): Neg (Concordance based on cutoff of ≥40% MCL-1 Dependency for both methods.)
- SEQ ID NO: 14 Dependency % ([1]; Sample # 2): 44.9%
- SEQ ID NO: 14 Result (Pos/Neg) ([1]; Sample # 2): Pos (Concordance based on cutoff of ≥40% MCL-1 Dependency for both methods.)
- SEQ ID NO: 14 Dependency % ([1]; Sample # 3): 53.8%
- SEQ ID NO: 14 Result (Pos/Neg) ([1]; Sample # 3): Pos (Concordance based on cutoff of ≥40% MCL-1 Dependency for both methods.)
- SEQ ID NO: 14 Dependency % ([1]; Sample # 4): 26.7%
- SEQ ID NO: 14 Result (Pos/Neg) ([1]; Sample # 4): Neg (Concordance based on cutoff of ≥40% MCL-1 Dependency for both methods.)
- SEQ ID NO: 14 Dependency % ([1]; Sample # 5): 70.8%
- SEQ ID NO: 14 Result (Pos/Neg) ([1]; Sample # 5): Pos (Concordance based on cutoff of ≥40% MCL-1 Dependency for both methods.)
- SEQ ID NO: 14 Dependency % ([1]; Sample # 6): 44.3%
- SEQ ID NO: 14 Result (Pos/Neg) ([1]; Sample # 6): Pos (Concordance based on cutoff of ≥40% MCL-1 Dependency for both methods.)
- SEQ ID NO: 14 Dependency % ([1]; Sample # 7): 48.1%
- SEQ ID NO: 14 Result (Pos/Neg) ([1]; Sample # 7): Pos (Concordance based on cutoff of ≥40% MCL-1 Dependency for both methods.)
- SEQ ID NO: 14 Dependency % ([1]; Sample # 8): 17.0%
- SEQ ID NO: 14 Result (Pos/Neg) ([1]; Sample # 8): Neg (Concordance based on cutoff of ≥40% MCL-1 Dependency for both methods.)
- SEQ ID NO: 14 Dependency % ([1]; Sample # 9): 71.8%
- SEQ ID NO: 14 Result (Pos/Neg) ([1]; Sample # 9): Pos (Concordance based on cutoff of ≥40% MCL-1 Dependency for both methods.)
- SEQ ID NO: 14 Dependency % ([1]; Sample # 10): 0.0%
- SEQ ID NO: 14 Result (Pos/Neg) ([1]; Sample # 10): Neg (Concordance based on cutoff of ≥40% MCL-1 Dependency for both methods.)
- SEQ ID NO: 14 Dependency % ([1]; Sample # 11): 40.6%
- SEQ ID NO: 14 Result (Pos/Neg) ([1]; Sample # 11): Pos (Concordance based on cutoff of ≥40% MCL-1 Dependency for both methods.)
- SEQ ID NO: 14 Dependency % ([1]; Sample # 12): 38.3%
- SEQ ID NO: 14 Result (Pos/Neg) ([1]; Sample # 12): Neg (Concordance based on cutoff of ≥40% MCL-1 Dependency for both methods.)
- SEQ ID NO: 14 Dependency % ([1]; Sample # 13): 35.2%
- SEQ ID NO: 14 Result (Pos/Neg) ([1]; Sample # 13): Neg (Concordance based on cutoff of ≥40% MCL-1 Dependency for both methods.)
- SEQ ID NO: 14 Dependency % ([1]; Sample # 14): 2.6%
- SEQ ID NO: 14 Result (Pos/Neg) ([1]; Sample # 14): Neg (Concordance based on cutoff of ≥40% MCL-1 Dependency for both methods.)
- SEQ ID NO: 14 Dependency % ([1]; Sample # 15): 0.0%
- SEQ ID NO: 14 Result (Pos/Neg) ([1]; Sample # 15): Neg (Concordance based on cutoff of ≥40% MCL-1 Dependency for both methods.)
- SEQ ID NO: 14 Dependency % ([1]; Sample # 16): 0.1%
- SEQ ID NO: 14 Result (Pos/Neg) ([1]; Sample # 16): Neg (Concordance based on cutoff of ≥40% MCL-1 Dependency for both methods.)
- SEQ ID NO: 14 Dependency % [1, 3]: 62.4%
- SEQ ID NO: 14 Result (Pos/Neg) [1, 3]: Pos (Concordance based on cutoff of ≥40% MCL-1 Dependency for both methods.)
- SEQ ID NO: 14 Dependency % [1, 4]: 55.0%
- SEQ ID NO: 14 Result (Pos/Neg) [1, 4]: Pos (Concordance based on cutoff of ≥40% MCL-1 Dependency for both methods.)
- SEQ ID NO: 14 Dependency % [1, 5]: 27.8%
- SEQ ID NO: 14 Result (Pos/Neg) [1, 5]: Neg (Concordance based on cutoff of ≥40% MCL-1 Dependency for both methods.)
- SEQ ID NO: 14 Dependency % (MV4-11): 5.0%
- activity in the absence of digitonin compared to Mcl-1 binding domain alone or SEQ ID NO:15 [2]: superior activity
- SEQ ID NO: 14 Dependency % (KG-1): 0.0%
- SEQ ID NO: 14 Dependency % (OCI-AML3): 19.40%
- SEQ ID NO: 14 Dependency % (U-937): 10.1%
- SEQ ID NO: 14 Dependency % (THP-1): 11.70%
- SEQ ID NO: 14 Dependency % (MOLM-13): 20.78%
